Experimental data: patent publication US20170333390A1, “PHYTOCHEMICAL COMPOSITIONS INCLUDING SESAMIN FOR ANTI-INFLAMMATORY, ANTI-CYTOKINE STORM, AND OTHER USES” (CHIANG MAI UNIVERSITY, priority 2009, published 2017)

Test system: cartilage tissue cultures exposed to IL-1 (ECM degradation, HA release)
Assay: HA release from IL-1 exposed cartilage tissue cultures (ELISA)
Assay type: cell-based
Details: relative to control culture
Experimental: Experiments were conducted to evaluate the anti-inflammatory effects of combinations of particular phytochemical compositions provided by the present disclosure with known substances, compositions, or drugs that are associated with an anti-inflammatory effect and/or an anti-degenerative or tissue integrity preservation effect in connective tissue. In the context of the present disclosure, the term “connective tissue” encompasses connective tissue proper (e.g., dense or fibrous connective tissue), as well as specialized connective tissue such as cartilage or bone. More specifically, experiments were conducted to evaluate the anti-inflammatory, anti-degenerative, and/or structural preservation effects of a combination of particular phytochemical compositions provided by the present disclosure with glucosamine sulfate. In addition, the experiments compared the anti-inflammatory/anti-degenerative effects of the combination of particular sesamin or sesamin-based phytochemical compositions provided by the present disclosure plus glucosamine sulfate, versus the anti-inflammatory/anti-degenerative effects of glucosamine sulfate alone.
Hyaluronic acid (HA) is an important component of the extracellular matrix (ECM), as well as a major component of synovial fluid. HA is present in articular cartilage, and contributes to cartilage resilience. It is known that IL-1 stimulates the synthesis and activity of matrix metalloproteinases and other enzymes that are associated with cartilage degradation as well as rheumatoid arthritis and osteoarthritis. A set of experimental cartilage tissue cultures were prepared using cartilage tissue samples containing HA within their ECMs. As further detailed below, the experimental cartilage tissue cultures selectively incorporated glucosamine sulfate alone; sesamin alone; or a combination of glucosamine sulfate and sesamin. Additionally, a control cartilage tissue culture remained unexposed to either of sesamin or glucosamine sulfate.
ECM degradation was induced in the experimental and control cartilage tissue cultures by exposing the cultures to IL-1. A measure or estimate of a cartilage tissue anti-degenerative effect was defined in accordance with an amount of HA that an experimental cartilage tissue culture released into the tissue culture medium relative to a reference or baseline amount of HA that was released into the tissue culture medium by the control cartilage tissue culture. More particularly, a percentage reduction in the amount of HA released into the tissue culture medium by a given experimental cartilage tissue culture relative to the amount of HA released into the tissue culture medium by the control cartilage tissue culture, indicated below as “Percentage (%) HA Reduction”, conveys or indicates the magnitude of an anti-degenerative or structural preservation effect provided by the experimental cartilage tissue culture under consideration. A corresponding measure or estimate of percentage (%) HA retention by cartilage tissue can also be defined based upon the experimental results. The amount or level of HA present in a given tissue culture medium was detected using ELISA, in a manner that can be understood by one of ordinary skill in the art.

In the case of c1cc2c(cc1[C@H]1OC[C@H]3[C@@H]1CO[C@@H]3c1ccc3c(c1)OCO3)OCO2 [sesamin], the “Percentage (%) HA Reduction” value (sesamin 0.25 uM (88.6 ug/ml)) is reported as “approximately 0%”, the “Percentage (%) HA Reduction” value (sesamin 0.25 uM (88.6 ug/ml), listed as Sesamin) is reported as 0% and the “Percentage (%) HA Reduction” value (sesamin 0.50 uM (177.2 ug/ml)) is reported as “approximately 4%”. The “Percentage (%) HA Reduction” value (sesamin 0.50 uM (177.2 ug/ml), listed as Sesamin) was 4%, the “Percentage (%) HA Reduction” value (sesamin 1.00 uM) was “approximately 43%” and the “Percentage (%) HA Reduction” value (sesamin 1.00 uM, listed as Sesamin) was 56%.
